The target of one experiment is VPS34 (Homo sapiens (Human), UniProt Q8NEB9). The experiment can be described thus: Biochemical Assay for VPS34 (ADP-Glo kinase activity assay). To be noted: 25 nM VPS34, 1 mM ATP, 1-hour incubation at 37° C.; read-out: VPS34 (Inhibition of biochemical activity of VPS34, IC50). Put shortly: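 GST-tagged full-length VPS34 (25 nM) was run with PI:3PS lipid substrate and 1 mM ATP. Reactions were incubated 1 h at 37° C with serially diluted compound in 0.1% DMSO. ADP was read as ADP-Glo luminescence, and IC50 came from a four-parameter fit against no-compound and reference-inhibitor controls.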
Chain of VPS34 (Q8NEB9 other isoform, or with tags, fused parts or gaps): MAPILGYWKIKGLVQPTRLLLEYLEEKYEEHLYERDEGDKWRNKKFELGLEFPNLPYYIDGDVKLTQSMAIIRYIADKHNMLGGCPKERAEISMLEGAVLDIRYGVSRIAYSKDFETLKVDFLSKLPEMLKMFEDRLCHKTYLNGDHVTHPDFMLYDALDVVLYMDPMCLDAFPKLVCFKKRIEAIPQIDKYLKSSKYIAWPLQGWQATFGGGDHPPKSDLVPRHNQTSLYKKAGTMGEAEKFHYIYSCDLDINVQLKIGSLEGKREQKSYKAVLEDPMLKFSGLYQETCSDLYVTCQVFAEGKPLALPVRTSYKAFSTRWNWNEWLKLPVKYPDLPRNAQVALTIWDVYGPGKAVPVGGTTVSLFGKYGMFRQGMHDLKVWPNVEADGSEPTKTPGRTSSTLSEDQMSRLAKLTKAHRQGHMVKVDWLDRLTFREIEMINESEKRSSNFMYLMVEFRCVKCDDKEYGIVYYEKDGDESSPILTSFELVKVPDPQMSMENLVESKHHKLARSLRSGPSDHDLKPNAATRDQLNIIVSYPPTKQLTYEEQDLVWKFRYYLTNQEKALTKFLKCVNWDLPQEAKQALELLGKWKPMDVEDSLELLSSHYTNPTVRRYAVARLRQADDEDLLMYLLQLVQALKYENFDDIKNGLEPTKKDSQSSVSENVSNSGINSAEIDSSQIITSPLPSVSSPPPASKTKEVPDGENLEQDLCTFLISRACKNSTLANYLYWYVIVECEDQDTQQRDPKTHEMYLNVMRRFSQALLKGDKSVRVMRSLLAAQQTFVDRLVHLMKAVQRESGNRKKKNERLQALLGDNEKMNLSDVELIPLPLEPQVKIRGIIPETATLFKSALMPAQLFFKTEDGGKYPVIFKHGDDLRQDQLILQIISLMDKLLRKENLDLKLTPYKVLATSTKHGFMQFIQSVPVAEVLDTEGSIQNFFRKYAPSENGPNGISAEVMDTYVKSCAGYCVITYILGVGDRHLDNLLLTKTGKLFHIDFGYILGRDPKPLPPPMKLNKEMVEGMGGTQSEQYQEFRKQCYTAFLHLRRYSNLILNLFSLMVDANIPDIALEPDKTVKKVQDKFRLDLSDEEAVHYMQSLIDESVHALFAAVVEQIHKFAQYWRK
(In ADP-Glo the light output rises with the ADP produced.)

In a further experiment the target is PI3Kd (p110δ/p85α) (Homo sapiens (Human), UniProt O00329). Description: Lipid kinase selectivity panel (Reaction Biology). The experiment is classed as biochemical. The settings on record: 1 μM compound, single dose duplicates, 10 μM ATP; read-out: Percent inhibition relative to DMSO control, PI3Kd (p110δ/p85α). The protocol:
(§1) The compounds of the present invention were tested in a standard lipid kinase selectivity panel: 16 other lipid kinases (Reaction Biology, Malvern, PA, USA), under conditions of non-disclosure, non-dissemination, and non-use. In brief, compounds (see Table 2) were tested at in single dose duplicates at 1 μM against lipid kinases, including PI3Kα, PI3Kβ, and PI3Kδ, and reactions were carried out at 10 μM ATP.

The target of experiment [1] is PI3K (p110α (H1047R)/p85α) (Homo sapiens (Human), UniProt P42336, H1047R). Description: Lipid kinase selectivity panel (Reaction Biology). The experiment is classed as biochemical. To be noted: 1 μM compound, single dose duplicates, 10 μM ATP; read-out: Percent inhibition relative to DMSO control, PI3K (p110α (H1047R)/p85α). The protocol:
as §1

The target in a further experiment is PI3KC2α (Homo sapiens (Human), UniProt O00443). The experiment can be described thus: Lipid kinase selectivity panel (Reaction Biology). The settings on record: 1 μM compound, single dose duplicates, 10 μM ATP; read-out: Percent inhibition relative to DMSO control, PI3KC2α. The experiment is classed as biochemical. The protocol: as §1
Experiment [2] has as its target PI3K (p110α (E545K)/p85α) (Homo sapiens (Human), UniProt P42336, E545K). The experiment can be described thus: Lipid kinase selectivity panel (Reaction Biology). To be noted: 1 μM compound, single dose duplicates, 10 μM ATP; read-out: Percent inhibition relative to DMSO control, PI3K (p110α (E545K)/p85α). The format is biochemical. On the procedure: as §1
Experiment [3] deals with PI3K (p110α (E542K)/p85α) (Homo sapiens (Human), UniProt P42336, E542K). Description: Lipid kinase selectivity panel (Reaction Biology). The settings on record: 1 μM compound, single dose duplicates, 10 μM ATP; read-out: Percent inhibition relative to DMSO control, PI3K (p110α (E542K)/p85α). The format is biochemical. The protocol:
as §1

The next experiment concerns the target PI3K (p110α/p65α) (Homo sapiens (Human), UniProt P42336). The experiment can be described thus: Lipid kinase selectivity panel (Reaction Biology). The experiment is classed as biochemical. To be noted: 1 μM compound, single dose duplicates, 10 μM ATP; read-out: Percent inhibition relative to DMSO control, PI3K (p110α/p65α). The protocol: as §1
For a further experiment, the target named is PI3Kb (p110β/p85α) (Homo sapiens (Human), UniProt P42338). The experiment can be described thus: Lipid kinase selectivity panel (Reaction Biology). The experiment is classed as biochemical. To be noted: 1 μM compound, single dose duplicates, 10 μM ATP; read-out: Percent inhibition relative to DMSO control, PI3Kb (p110β/p85α). The protocol: as §1
Chain of PI3Kb (p110β/p85α) (P42338 whole entry, species assumed): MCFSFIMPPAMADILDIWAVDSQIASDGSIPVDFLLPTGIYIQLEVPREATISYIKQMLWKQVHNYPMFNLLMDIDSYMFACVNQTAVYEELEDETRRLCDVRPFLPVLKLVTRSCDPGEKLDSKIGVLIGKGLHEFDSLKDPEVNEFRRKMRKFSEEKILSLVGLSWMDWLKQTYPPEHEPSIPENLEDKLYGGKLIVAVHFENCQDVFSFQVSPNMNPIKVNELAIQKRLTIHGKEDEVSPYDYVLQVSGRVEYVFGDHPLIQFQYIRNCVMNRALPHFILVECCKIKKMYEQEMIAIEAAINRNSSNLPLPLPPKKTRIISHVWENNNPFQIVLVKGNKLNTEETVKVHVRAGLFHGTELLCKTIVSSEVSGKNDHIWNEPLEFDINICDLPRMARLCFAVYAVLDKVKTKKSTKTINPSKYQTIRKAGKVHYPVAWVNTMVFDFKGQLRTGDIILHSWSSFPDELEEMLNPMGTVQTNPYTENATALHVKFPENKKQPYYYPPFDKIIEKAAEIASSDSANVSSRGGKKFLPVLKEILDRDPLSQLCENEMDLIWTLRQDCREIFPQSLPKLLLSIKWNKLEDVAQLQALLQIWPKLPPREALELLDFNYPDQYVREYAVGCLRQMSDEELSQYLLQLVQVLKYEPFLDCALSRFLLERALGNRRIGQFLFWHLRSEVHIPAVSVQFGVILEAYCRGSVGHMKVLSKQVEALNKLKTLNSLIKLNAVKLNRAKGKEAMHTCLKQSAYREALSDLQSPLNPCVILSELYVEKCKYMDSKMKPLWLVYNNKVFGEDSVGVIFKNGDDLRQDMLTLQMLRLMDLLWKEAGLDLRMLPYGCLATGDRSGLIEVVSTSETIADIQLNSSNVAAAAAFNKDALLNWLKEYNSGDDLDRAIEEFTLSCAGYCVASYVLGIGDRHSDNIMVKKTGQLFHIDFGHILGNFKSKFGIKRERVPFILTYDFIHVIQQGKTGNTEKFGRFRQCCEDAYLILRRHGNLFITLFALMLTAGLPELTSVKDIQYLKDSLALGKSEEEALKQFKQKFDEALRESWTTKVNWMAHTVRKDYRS
Chain of PI3Kb (p110β/p85α) (P27986 whole entry partner, species assumed): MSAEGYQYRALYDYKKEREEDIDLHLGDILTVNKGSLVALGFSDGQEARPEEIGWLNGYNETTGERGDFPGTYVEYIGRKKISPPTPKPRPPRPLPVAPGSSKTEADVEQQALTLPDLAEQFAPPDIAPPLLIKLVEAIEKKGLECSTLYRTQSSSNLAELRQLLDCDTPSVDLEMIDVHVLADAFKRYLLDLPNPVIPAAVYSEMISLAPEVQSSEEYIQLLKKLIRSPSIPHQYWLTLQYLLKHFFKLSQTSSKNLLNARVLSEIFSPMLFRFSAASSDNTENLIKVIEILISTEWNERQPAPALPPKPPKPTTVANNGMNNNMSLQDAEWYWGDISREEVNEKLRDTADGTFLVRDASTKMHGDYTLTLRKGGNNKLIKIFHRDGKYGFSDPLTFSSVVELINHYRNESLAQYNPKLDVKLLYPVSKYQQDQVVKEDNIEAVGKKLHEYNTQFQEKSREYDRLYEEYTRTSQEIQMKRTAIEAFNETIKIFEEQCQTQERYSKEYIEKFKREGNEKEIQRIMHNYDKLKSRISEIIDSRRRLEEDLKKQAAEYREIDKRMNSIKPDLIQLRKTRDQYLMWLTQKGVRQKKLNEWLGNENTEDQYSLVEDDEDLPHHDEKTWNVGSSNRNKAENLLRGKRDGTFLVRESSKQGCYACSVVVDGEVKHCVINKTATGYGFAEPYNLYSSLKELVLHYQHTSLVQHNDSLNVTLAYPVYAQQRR
A further experiment has as its target PI3Kg (p110γ) (Homo sapiens (Human), UniProt P48736). Description: Lipid kinase selectivity panel (Reaction Biology). The format is biochemical. The settings on record: 1 μM compound, single dose duplicates, 10 μM ATP; read-out: Percent inhibition relative to DMSO control, PI3Kg (p110γ). On the procedure:
as §1

The target in the next experiment is PI3Kα (p110α/p85α) (Homo sapiens (Human), UniProt P42336). Description: Lipid kinase selectivity panel (Reaction Biology). The format is biochemical. The settings on record: 1 μM compound, single dose duplicates, 10 μM ATP; read-out: Percent inhibition relative to DMSO control, PI3Kα (p110α/p85α). The protocol: as §1
Chain of PI3Kα (p110α/p85α) (P42336 whole entry, species assumed): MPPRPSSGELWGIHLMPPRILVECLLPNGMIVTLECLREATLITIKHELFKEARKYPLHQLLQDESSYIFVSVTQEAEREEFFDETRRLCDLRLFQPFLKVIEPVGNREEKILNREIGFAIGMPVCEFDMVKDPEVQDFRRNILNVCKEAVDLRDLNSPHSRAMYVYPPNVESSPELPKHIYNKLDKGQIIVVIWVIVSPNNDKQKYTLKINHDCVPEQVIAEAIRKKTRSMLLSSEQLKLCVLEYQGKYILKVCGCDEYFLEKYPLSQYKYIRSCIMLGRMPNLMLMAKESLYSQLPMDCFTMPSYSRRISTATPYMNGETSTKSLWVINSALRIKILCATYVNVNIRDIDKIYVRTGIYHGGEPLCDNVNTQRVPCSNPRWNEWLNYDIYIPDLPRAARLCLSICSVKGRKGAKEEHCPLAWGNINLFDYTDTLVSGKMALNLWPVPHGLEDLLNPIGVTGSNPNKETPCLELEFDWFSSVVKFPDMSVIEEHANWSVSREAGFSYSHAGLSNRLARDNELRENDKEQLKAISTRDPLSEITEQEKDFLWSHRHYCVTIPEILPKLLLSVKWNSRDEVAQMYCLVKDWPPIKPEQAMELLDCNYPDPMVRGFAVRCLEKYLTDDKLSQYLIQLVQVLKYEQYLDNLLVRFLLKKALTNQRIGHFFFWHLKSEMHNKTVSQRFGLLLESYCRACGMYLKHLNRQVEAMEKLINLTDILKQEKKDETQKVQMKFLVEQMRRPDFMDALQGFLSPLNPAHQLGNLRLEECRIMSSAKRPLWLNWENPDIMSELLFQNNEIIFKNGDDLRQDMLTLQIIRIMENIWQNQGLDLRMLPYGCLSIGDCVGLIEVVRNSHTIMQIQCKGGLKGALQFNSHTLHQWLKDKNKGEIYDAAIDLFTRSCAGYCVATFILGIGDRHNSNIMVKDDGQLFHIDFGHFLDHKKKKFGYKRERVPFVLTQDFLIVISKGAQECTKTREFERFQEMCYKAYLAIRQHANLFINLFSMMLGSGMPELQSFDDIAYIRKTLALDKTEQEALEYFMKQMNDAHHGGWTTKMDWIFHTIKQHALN
Chain of PI3Kα (p110α/p85α) (P27986 whole entry partner, species assumed): as the sequence (P27986 whole entry partner, species assumed) above

The results in this text go back to patent US20250236609A1, “VPS34 INHIBITORS AND METHODS OF USE THEREOF” (Deciphera Pharmaceuticals, LLC, priority 2023, published 2025).

Where only a bound is given, the exact number is not on record here.

A word on the IC50: it is the concentration at which inhibition is half-maximal.

Chain of PI3K (p110α (E542K)/p85α) (P42336 whole entry E542K): as the sequence (P42336 whole entry, species assumed) above, with E542K counted along it
Chain of PI3K (p110α (E542K)/p85α) (P27986 whole entry partner): as the sequence (P27986 whole entry partner, species assumed) above
Chain of PI3K (p110α (H1047R)/p85α) (P42336 whole entry H1047R): as the sequence (P42336 whole entry, species assumed) above, with H1047R counted along it
Chain of PI3K (p110α (H1047R)/p85α) (P27986 whole entry partner): as the sequence (P27986 whole entry partner, species assumed) above
Chain of PI3K (p110α (E545K)/p85α) (P42336 whole entry E545K): as the sequence (P42336 whole entry, species assumed) above, with E545K counted along it
Chain of PI3K (p110α (E545K)/p85α) (P27986 whole entry partner): as the sequence (P27986 whole entry partner, species assumed) above
Chain of PI3K (p110α/p65α) (P42336 whole entry, species assumed): as the sequence (P42336 whole entry, species assumed) above

For the compound `Cc1cnc(NC(=O)CCN2CCCC2)cc1-c1cc(N2CCCC[C@@H]2C(F)(F)F)[nH]c(=O)c1` [Example 26], the IC50 at VPS34 lay within 0.1 to 0.5 µM. Moreover, the inhibition at 1 µM at PI3Kd (p110δ/p85α) is -5%; in [1] it was -8%; on PI3KC2α, 4%; in [2] it was -1%; in [3], -2%; on PI3K (p110α/p65α) it was -4%. The results for the inhibition at 1 µM at PI3Kb (p110β/p85α), on PI3Kg (p110γ) and on PI3Kα (p110α/p85α) were -10%, -5% and -2%, respectively.
Turning to `Cc1cnc(NC(=O)CC2CNC2)cc1-c1cc(N2CCCC[C@@H]2C(F)(F)F)[nH]c(=O)c1` [Example 27], the half-inhibitory concentration (IC50) at VPS34 fell in the range of 0.1 to 0.5 µM. The inhibition at 1 µM at PI3Kd (p110δ/p85α) is 2%; in [1], -11%; at PI3KC2α it was 0%; in [2] it was 1%; in [3], 1%; on PI3K (p110α/p65α) it was 7%. In addition, the inhibition at 1 µM at PI3Kb (p110β/p85α) is -1%; at PI3Kg (p110γ), -8%; on PI3Kα (p110α/p85α) it was 4%.
Regarding `Cc1cnc(NC(=O)OC2CC3(CNC3)C2)cc1-c1cc(N2CCCC[C@@H]2C(F)(F)F)[nH]c(=O)c1` [Example 28], the IC50 on VPS34 lay within 0.1 to 0.5 µM. For the same compound, the inhibition at 1 µM is 6% at PI3Kd (p110δ/p85α); -3% in experiment [1]; 3% on PI3KC2α; -5% in experiment [2]; -20% in experiment [3]; -3% at PI3K (p110α/p65α). In addition, the inhibition at 1 µM is 0% at PI3Kb (p110β/p85α), -10% on PI3Kg (p110γ) and -31% at PI3Kα (p110α/p85α).
Consider `Cc1nccc(Nc2cc(-c3cc(-c4cccnc4C(F)(F)F)[nH]c(=O)c3)c(C)cn2)n1` [Example 38], for which, at VPS34, the IC50 was not above 0.1 µM. Besides, the inhibition at 1 µM is 52% at PI3Kd (p110δ/p85α); 23% in experiment [1]; 4% on PI3KC2α; 24% in experiment [2]; 16% in experiment [3]; 19% at PI3K (p110α/p65α). Besides, the inhibition at 1 µM on PI3Kb (p110β/p85α) stood at 18%; on PI3Kg (p110γ) it was 66%; at PI3Kα (p110α/p85α) it was 24%.
Turning to `Cc1nccc(Nc2cc(-c3cc(N4CCCC[C@@H]4C(F)(F)F)[nH]c(=O)c3)c(C)cn2)n1` [Example 77], at VPS34, the concentration for half-maximal inhibition (IC50) was not above 0.1 µM. In addition, the inhibition at 1 µM was 17% on PI3Kd (p110δ/p85α); 22% in [1]; 2% at PI3KC2α; 28% in experiment [2]; 33% in [3]; 24% at PI3K (p110α/p65α). Besides, the inhibition at 1 µM was determined as 11% at PI3Kb (p110β/p85α), 65% at PI3Kg (p110γ) and 30% at PI3Kα (p110α/p85α).
Take `COC(=O)Nc1cc(-c2cc(-c3cccnc3C(F)(F)F)[nH]c(=O)c2)c(C)cn1` [Example 78]: on VPS34, the IC50 lay within 0.1 to 0.5 µM. Further, the inhibition at 1 µM was 10% on PI3Kd (p110δ/p85α); 8% in experiment [1]; -3% on PI3KC2α; 12% in [2]; 14% in experiment [3]; 15% at PI3K (p110α/p65α). Moreover, the inhibition at 1 µM was found to be 14% at PI3Kb (p110β/p85α), 30% on PI3Kg (p110γ) and 20% at PI3Kα (p110α/p85α).
